# Measurements: ChEMBL document CHEMBL4402613, “Targeting ALK2: An Open Science Approach to Developing Therapeutics for the Treatment of Diffuse Intrinsic Pontine Glioma” (J Med Chem, 2020)
# Calls of active or inactive are those of the source. The calls are words filed in the database; no cut-off is given here.
# Experiments:
# TGF-beta receptor type-1 [1] = molecular target: T1, TGF-beta receptor type-1 (Homo sapiens, UniProt P36897); assay type: single protein
# T1 sequence (P36897 whole entry): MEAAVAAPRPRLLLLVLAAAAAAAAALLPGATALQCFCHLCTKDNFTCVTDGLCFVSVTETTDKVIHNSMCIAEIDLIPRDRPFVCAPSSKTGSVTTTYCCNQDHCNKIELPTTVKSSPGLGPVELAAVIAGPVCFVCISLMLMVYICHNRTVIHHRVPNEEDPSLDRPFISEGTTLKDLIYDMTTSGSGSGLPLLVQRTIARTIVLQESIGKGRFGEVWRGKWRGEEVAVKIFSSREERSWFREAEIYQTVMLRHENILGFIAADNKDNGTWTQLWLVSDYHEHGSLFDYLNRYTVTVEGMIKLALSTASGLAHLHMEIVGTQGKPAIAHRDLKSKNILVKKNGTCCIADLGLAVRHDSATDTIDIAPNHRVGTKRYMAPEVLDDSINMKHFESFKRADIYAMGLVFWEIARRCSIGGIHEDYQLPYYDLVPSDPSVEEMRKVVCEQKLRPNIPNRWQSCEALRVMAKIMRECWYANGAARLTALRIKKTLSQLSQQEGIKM
# Description: Inhibition of human ALK5 using casein as substrate in presence of 10 uM [gamma33P] ATP by radioactive assay
# Activin receptor type-1 [2] = molecular target: T2, Activin receptor type-1 (Homo sapiens, UniProt Q04771)
# T2 sequence (Q04771 whole entry): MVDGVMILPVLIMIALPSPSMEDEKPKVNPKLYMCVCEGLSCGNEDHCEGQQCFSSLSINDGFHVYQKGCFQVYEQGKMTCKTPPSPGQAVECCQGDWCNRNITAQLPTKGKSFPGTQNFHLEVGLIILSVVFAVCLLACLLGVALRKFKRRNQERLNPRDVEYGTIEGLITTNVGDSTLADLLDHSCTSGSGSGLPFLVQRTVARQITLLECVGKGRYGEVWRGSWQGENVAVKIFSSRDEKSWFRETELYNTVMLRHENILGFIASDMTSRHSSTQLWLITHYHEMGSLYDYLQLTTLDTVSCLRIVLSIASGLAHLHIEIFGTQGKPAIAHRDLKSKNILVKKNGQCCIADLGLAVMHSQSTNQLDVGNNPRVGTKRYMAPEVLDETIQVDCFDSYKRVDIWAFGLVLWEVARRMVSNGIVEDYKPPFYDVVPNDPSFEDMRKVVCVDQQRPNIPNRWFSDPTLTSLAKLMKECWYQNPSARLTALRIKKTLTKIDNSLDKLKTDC
# Description: Inhibition of human ALK2 using casein as substrate in presence of 10 uM [gamma33P] ATP by radioactive assay
# Activin receptor type-1 [3] = molecular target: T2, Activin receptor type-1; assay: Inhibition of C-terminal nanoluciferase-fused ALK2 (unknown origin) expressed in HEK293 cells incubated for 2 hrs followed by NanoBRET NanoGlo Substrate addition by NanoBRET assay; assay type: cell-based
# TGF-beta receptor type-1 [4] = molecular target: T1, TGF-beta receptor type-1; assay type: cell-based, HEK293
# Description: Inhibition of ALK5 (unknown origin) expressed in HEK293 cells transfected with CAGA-luciferase and Renilla luciferase reporter measured after 24 hrs by dual luciferase reporter assay
# [5] = mouse, microsomes, 1 h, 1 µM
# Description: Microsomal stability in CD-1 mouse liver microsomes assessed as parent compound remaining at 1 uM and 37 degree C measured after 60 mins in presence of NADP+ by LC-QTOF/MS analysis
# [6] = molecular target: T3, Serine/threonine-protein kinase A-Raf (Homo sapiens) (UniProt P10398); assay: Inhibition of ARAF (unknown origin) at 1 uM
# T3 sequence (whole entry): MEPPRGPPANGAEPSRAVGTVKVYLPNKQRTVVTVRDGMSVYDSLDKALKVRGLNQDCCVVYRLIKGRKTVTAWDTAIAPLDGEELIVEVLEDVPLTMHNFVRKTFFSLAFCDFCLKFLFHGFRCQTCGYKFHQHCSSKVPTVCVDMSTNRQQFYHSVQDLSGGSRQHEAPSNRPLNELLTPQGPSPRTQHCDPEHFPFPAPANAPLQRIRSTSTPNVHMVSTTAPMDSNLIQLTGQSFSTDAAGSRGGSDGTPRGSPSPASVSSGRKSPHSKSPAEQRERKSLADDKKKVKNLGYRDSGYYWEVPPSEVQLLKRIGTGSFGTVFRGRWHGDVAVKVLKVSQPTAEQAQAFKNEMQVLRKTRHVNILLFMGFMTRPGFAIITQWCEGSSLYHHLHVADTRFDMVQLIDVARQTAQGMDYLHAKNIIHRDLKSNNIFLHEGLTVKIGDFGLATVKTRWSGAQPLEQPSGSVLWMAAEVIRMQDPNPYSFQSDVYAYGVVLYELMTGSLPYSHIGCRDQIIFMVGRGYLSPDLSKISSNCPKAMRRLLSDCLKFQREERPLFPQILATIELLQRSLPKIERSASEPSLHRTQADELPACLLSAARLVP
# [7] = molecular target: Misshapen-like kinase 1 (Homo sapiens) (UniProt Q8N4C8); assay: Inhibition of MINK (unknown origin) at 1 uM
# Sequence of Misshapen-like kinase 1 (Homo sapiens) (Q8N4C8 whole entry, looked up): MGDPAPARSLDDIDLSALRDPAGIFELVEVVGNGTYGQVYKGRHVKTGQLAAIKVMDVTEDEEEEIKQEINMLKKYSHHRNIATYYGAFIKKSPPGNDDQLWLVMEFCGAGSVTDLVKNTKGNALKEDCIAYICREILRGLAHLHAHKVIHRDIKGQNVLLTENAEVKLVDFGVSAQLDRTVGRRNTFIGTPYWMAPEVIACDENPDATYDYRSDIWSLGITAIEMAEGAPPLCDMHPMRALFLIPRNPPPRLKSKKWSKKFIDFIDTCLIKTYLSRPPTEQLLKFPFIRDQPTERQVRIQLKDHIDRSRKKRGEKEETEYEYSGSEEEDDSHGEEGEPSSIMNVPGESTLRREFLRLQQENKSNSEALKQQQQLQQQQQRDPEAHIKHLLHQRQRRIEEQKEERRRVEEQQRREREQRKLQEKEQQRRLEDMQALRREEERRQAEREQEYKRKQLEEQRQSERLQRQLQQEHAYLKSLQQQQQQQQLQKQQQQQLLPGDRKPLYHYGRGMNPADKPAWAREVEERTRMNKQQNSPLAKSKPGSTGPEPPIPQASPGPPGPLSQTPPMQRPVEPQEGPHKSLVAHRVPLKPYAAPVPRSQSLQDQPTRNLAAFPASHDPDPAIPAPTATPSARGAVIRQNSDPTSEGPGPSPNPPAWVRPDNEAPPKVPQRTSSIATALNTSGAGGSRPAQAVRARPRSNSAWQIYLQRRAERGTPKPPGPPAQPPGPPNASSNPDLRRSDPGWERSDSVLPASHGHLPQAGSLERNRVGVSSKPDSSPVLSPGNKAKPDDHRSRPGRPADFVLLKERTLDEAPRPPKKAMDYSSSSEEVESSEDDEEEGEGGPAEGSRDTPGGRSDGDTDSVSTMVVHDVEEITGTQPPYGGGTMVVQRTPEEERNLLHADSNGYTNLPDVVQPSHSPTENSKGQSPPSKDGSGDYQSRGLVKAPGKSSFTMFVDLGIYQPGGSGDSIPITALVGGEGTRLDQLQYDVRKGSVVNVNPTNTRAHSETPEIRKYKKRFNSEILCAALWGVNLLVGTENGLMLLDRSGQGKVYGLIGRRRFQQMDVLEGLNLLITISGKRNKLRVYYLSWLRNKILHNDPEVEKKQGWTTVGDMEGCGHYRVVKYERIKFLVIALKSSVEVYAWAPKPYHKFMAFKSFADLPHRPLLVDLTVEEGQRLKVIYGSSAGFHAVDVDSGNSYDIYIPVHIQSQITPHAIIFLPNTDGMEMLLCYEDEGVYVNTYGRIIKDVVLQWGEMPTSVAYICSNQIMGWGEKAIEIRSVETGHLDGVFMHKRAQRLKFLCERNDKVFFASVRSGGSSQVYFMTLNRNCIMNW
# [8] = human, microsomes, 1 h, 1 µM
# Description: Microsomal stability in human liver microsomes assessed as parent compound remaining at 1 uM and 37 degree C measured after 60 mins in presence of NADP+ by LC-QTOF/MS analysis
# [9] = molecular target: Mitogen-activated protein kinase kinase kinase kinase 4 (Homo sapiens) (UniProt O95819); assay: Inhibition of MAP4K4 (unknown origin) at 1 uM
# Sequence of Mitogen-activated protein kinase kinase kinase kinase 4 (Homo sapiens) (O95819 2-1239 limits assumed): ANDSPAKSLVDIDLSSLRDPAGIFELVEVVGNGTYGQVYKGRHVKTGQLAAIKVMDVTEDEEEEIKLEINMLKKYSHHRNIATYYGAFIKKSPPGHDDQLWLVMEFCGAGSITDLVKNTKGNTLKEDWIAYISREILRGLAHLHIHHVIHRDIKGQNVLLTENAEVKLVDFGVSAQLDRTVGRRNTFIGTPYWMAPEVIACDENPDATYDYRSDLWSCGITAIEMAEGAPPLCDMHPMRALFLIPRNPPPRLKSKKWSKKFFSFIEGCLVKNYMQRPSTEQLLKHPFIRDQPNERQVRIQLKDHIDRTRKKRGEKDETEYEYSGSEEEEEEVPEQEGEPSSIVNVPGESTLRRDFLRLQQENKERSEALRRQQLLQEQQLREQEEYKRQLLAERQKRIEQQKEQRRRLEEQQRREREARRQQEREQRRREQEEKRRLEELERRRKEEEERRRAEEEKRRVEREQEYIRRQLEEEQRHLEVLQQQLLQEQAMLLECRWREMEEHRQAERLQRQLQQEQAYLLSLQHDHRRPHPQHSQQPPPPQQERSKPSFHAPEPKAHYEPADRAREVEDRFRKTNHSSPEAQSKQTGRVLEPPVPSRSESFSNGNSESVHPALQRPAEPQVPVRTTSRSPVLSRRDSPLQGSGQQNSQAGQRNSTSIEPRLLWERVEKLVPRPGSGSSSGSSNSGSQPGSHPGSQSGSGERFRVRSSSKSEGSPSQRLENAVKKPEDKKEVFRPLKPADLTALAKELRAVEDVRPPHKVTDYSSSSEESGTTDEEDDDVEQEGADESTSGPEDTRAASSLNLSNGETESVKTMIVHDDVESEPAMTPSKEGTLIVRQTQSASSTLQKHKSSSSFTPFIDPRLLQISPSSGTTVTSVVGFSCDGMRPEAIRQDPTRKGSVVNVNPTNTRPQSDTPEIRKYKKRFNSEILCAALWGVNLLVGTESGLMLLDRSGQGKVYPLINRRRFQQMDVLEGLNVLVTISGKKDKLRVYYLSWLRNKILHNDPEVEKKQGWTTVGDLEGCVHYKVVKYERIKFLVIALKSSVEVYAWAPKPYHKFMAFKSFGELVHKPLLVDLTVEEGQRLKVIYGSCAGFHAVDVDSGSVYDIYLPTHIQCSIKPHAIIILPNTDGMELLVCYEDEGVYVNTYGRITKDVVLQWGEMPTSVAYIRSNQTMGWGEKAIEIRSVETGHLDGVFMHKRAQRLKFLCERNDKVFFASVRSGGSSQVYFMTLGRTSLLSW
# [10] = molecular target: T4, Non-receptor tyrosine-protein kinase TNK1 (Homo sapiens) (UniProt Q13470); assay: Inhibition of TNK1 (unknown origin) at 1 uM
# T4 sequence (whole entry): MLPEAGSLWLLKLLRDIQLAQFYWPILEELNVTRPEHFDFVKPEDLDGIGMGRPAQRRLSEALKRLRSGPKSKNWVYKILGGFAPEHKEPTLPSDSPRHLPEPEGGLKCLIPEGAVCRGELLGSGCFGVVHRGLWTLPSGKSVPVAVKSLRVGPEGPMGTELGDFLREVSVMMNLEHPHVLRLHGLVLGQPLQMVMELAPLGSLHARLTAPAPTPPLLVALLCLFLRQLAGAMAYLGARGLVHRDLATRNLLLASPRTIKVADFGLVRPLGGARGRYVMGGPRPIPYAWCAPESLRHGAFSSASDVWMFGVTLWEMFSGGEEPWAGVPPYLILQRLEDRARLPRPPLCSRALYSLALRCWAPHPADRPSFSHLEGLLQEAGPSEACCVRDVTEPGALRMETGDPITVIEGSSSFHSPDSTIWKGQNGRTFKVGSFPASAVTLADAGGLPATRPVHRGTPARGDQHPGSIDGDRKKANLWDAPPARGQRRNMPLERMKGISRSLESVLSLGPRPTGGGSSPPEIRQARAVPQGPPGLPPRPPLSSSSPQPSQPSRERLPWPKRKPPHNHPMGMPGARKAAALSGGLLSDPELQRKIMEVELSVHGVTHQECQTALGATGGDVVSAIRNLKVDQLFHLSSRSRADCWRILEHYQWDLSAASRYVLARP
# in vitro [11] = conditions: human, Caco-2
# Description: Apparent permeability across basolateral to apical membrane in human Caco2 cells at 5 uM incubated for 120 mins in orbital shaker by LC-QTOF/MS analysis
# [12] = molecular target: Bone morphogenetic protein receptor type-1B (Homo sapiens) (UniProt O00238); assay: Inhibition of ALK6 (unknown origin) at 1 uM
# Sequence of Bone morphogenetic protein receptor type-1B (Homo sapiens) (O00238 whole entry): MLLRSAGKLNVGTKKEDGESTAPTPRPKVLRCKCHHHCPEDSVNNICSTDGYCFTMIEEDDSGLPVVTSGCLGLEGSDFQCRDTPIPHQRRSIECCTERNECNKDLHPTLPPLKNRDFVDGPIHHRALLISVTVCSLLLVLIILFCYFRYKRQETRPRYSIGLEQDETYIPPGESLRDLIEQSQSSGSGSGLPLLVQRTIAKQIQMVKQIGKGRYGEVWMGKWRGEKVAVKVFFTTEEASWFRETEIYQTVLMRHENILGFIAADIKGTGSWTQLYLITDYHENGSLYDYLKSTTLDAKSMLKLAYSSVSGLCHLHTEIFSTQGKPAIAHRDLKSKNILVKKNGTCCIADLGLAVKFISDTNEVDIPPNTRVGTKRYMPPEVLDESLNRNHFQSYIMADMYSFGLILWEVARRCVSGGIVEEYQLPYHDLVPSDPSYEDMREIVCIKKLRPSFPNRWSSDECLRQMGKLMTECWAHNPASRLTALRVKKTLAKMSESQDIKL
# [13] = molecular target: Activin receptor type-1-like (Homo sapiens) (UniProt P37023); assay: Inhibition of ALK1 (unknown origin) at 1 uM
# Sequence of Activin receptor type-1-like (Homo sapiens) (P37023 whole entry): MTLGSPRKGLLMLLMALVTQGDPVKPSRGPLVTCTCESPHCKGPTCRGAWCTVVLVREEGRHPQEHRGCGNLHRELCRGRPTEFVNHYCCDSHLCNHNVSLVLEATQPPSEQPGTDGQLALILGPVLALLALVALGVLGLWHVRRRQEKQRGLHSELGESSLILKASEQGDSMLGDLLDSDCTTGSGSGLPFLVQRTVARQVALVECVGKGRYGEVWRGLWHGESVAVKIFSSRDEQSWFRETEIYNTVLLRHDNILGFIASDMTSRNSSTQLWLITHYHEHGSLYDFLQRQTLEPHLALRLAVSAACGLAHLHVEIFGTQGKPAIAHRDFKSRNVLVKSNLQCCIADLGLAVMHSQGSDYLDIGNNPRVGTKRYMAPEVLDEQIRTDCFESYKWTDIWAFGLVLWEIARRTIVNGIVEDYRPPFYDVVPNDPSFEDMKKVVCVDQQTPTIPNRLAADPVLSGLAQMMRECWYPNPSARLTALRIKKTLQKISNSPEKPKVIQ
# [14] = molecular target: Voltage-gated inwardly rectifying potassium channel KCNH2 (Homo sapiens, UniProt Q12809)
# Description: Inhibition of human ERG expressed in HEK293 cells measured after 5 mins by whole cell patch clamp method
# [15] = molecular target: Bone morphogenetic protein receptor type-1A (Homo sapiens) (UniProt P36894); assay: Inhibition of ALK3 (unknown origin) at 1 uM
# Sequence of Bone morphogenetic protein receptor type-1A (Homo sapiens) (P36894 whole entry): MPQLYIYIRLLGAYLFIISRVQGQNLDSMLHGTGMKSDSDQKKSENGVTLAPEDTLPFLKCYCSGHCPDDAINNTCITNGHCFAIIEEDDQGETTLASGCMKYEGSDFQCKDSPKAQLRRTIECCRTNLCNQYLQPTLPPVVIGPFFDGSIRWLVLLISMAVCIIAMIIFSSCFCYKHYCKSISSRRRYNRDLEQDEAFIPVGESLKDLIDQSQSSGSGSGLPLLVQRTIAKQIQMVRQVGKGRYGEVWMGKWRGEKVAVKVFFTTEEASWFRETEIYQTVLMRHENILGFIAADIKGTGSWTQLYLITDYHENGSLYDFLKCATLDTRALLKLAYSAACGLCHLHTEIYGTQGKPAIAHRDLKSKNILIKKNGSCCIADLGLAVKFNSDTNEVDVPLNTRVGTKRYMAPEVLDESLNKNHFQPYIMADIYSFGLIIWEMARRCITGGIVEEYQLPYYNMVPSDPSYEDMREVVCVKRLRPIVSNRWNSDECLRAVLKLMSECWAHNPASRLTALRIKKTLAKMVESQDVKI
# in vitro [16] = conditions: human, Caco-2; remark: listed apart in the source
# Description: Apparent permeability across apical to basolateral membrane in human Caco2 cells at 5 uM incubated for 120 mins in orbital shaker by LC-QTOF/MS analysis
# Activin receptor type-1 [17] = molecular target: Activin receptor type-1 (Homo sapiens, UniProt Q04771, R206H); assay: Inhibition of human ALK2 R206H mutant using casein as substrate in presence of 10 uM [gamma33P] ATP by radioactive assay
# Sequence of Activin receptor type-1 (Homo sapiens, UniProt Q04771, R206H) (Q04771 21-509 R206H limits assumed): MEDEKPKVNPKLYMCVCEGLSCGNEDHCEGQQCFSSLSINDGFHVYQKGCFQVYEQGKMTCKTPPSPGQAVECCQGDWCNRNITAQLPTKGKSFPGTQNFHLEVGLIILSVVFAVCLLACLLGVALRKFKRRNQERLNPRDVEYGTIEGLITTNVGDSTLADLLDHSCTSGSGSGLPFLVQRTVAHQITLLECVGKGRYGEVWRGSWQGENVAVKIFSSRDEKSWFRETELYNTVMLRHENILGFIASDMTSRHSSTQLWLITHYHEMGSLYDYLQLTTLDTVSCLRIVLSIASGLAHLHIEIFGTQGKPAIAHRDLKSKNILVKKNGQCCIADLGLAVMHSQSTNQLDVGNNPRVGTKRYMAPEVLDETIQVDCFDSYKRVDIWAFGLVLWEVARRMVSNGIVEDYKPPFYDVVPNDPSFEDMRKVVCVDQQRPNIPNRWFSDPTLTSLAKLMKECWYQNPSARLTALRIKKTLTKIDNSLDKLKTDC
# Activin receptor type-1 [18] = molecular target: Activin receptor type-1 (Homo sapiens, UniProt Q04771, R258G); assay: Inhibition of ALK2 R258G mutant (unknown origin)
# Sequence of Activin receptor type-1 (Homo sapiens, UniProt Q04771, R258G) (Q04771 21-509 R258G limits assumed): as the sequence (Q04771 21-509 R206H limits assumed) above, with H186R, R238G counted along it
# Activin receptor type-1 [19] = molecular target: Activin receptor type-1 (Homo sapiens, UniProt Q04771, G328V); assay: Inhibition of ALK2 G328V mutant (unknown origin)
# Sequence of Activin receptor type-1 (Homo sapiens, UniProt Q04771, G328V) (Q04771 21-509 G328V limits assumed): as the sequence (Q04771 21-509 R206H limits assumed) above, with H186R, G308V counted along it
# [20] = mouse, in vivo, po, 10 mg/kg, 24 h
# [21] = mouse, in vivo, po, 10 mg/kg, 24 h; remark: listed apart in the source
# [22] = mouse, in vivo, po, 10 mg/kg, 24 h; remark: listed apart in the source
# Description: Half life in CB17 SCID mouse at 10 mg/kg, po measured up to 24 hrs by LC-MS/MS analysis
SMILES,IC50 (TGF-beta receptor type-1 [1]) [nM],IC50 (Activin receptor type-1 [2]) [nM],IC50 (Activin receptor type-1 [3]) [nM],IC50 (TGF-beta receptor type-1 [4]) [nM],also measured
COc1ccc(-c2cncc(-c3ccc(N4CCNCC4)cc3)c2C)cc1C(N)=O,> 5000,> 1000,694,> 5000,–
COc1cc(-c2cncc(-c3ccc(N4C[C@@H](C)N(C)[C@@H](C)C4)cc3)c2C)cc(OC)c1C(N)=O,52,3,–,283,–
COc1cc(-c2cncc(-c3ccc(N4C[C@@H](C)N(C)[C@@H](C)C4)cc3)c2C)cc(F)c1C(N)=O,2910,10,100,> 5000,"Stability [5]: Stable; inhibition [6]: Active; inhibition [7]: Active; Stability [8]: Stable; inhibition [9]: Active; inhibition [10]: Active; Papp B→A at 2 h, 5 µM (in vitro [11]): 14.5 ×10⁻⁶ cm/s; inhibition [12]: Active; inhibition [13]: Active; IC50 [14]: 19000 nM; inhibition [15]: Active; Papp A→B at 2 h, 5 µM (in vitro [16]): 4.3 ×10⁻⁶ cm/s"
Cc1c(-c2ccc(N3CCNCC3)cc2)cncc1-c1ccc2c(c1)CNC2=O,> 5000,–,2340,4810,IC50 (Activin receptor type-1 [17]): 226 nM; IC50 (Activin receptor type-1 [18]): 363 nM; IC50 (Activin receptor type-1 [19]): 171 nM
COc1cc(-c2cncc(-c3ccc(N4CCNCC4)cc3)c2C)cc(Cl)c1C(N)=O,2080,–,93,> 5000,IC50 (Activin receptor type-1 [17]): 5 nM; IC50 (Activin receptor type-1 [18]): 4 nM; IC50 (Activin receptor type-1 [19]): < 2 nM
COc1cc(-c2cncc(-c3ccc(N4CCN(C(C)C)CC4)cc3)c2C)cc(F)c1C(N)=O,–,–,–,–,inhibition [6]: Active; inhibition [7]: Active; inhibition [9]: Active; inhibition [10]: Active; inhibition [12]: Active; inhibition [13]: Active; inhibition [15]: Active
COc1cc(-c2cncc(-c3ccc(N4CCNCC4)cc3)c2C)cc(OC)c1C(N)=O,–,–,178,–,–
COc1cc(C(N)=O)cc(-c2cncc(-c3ccc(N4CCNCC4)cc3)c2C)c1,> 5000,102,588,> 5000,–
COc1c(-c2cncc(-c3ccc(N4CCNCC4)cc3)c2C)csc1C(N)=O,> 5000,712,2810,> 5000,–
COc1cc(-c2cncc(-c3ccc(N4CCNCC4)cc3)c2C)ccc1C(=O)N(C)C,> 5000,> 1000,> 5000,> 5000,–
CNC(=O)c1ccc(-c2cncc(-c3ccc(N4CCNCC4)cc3)c2C)cc1OC,> 5000,> 1000,> 5000,> 5000,–
COc1cc(-c2cncc(-c3ccc(N4CCNCC4)cc3)c2C)cc(F)c1C(N)=O,–,–,81,–,"Cmax [20]: 97 ng/mL; Stability [5]: > 85%; Stability [8]: > 85%; IC50 (Activin receptor type-1 [17]): 8 nM; Papp B→A at 2 h, 5 µM (in vitro [11]): 10.7 ×10⁻⁶ cm/s; AUC [21]: 296 ng·h/mL; IC50 (Activin receptor type-1 [18]): 7 nM; IC50 (Activin receptor type-1 [19]): 4 nM; t1/2 [22]: 1.31 h; Papp A→B at 2 h, 5 µM (in vitro [16]): 0.3 ×10⁻⁶ cm/s"
COCc1cc(-c2cncc(-c3ccc(N4CCNCC4)cc3)c2C)ccc1C(N)=O,> 5000,687,3840,> 5000,–
COc1cc(-c2cncc(-c3ccc(N4CCNCC4)cc3)c2C)sc1C(N)=O,> 5000,751,3370,> 5000,–
COc1cc(-c2cncc(-c3ccc(N4CCNCC4)cc3)c2C)ccc1C(N)=O,–,–,55,–,IC50 (Activin receptor type-1 [17]): 9 nM; IC50 (Activin receptor type-1 [18]): 9 nM; IC50 (Activin receptor type-1 [19]): 5 nM
Cc1c(-c2ccc(N3CCNCC3)cc2)cncc1-c1ccc(C(N)=O)c(F)c1,> 5000,263,1010,> 5000,–
Cc1c(-c2ccc(C(N)=O)cc2)cncc1-c1ccc(N2CCNCC2)cc1,> 5000,477,2770,> 5000,–
COc1cc(-c2cncc(-c3ccc(N4CCN(C(C)C)CC4)cc3)c2C)cc(OC)c1C(N)=O,66,5,18,276,–
COc1c(C(N)=O)csc1-c1cncc(-c2ccc(N3CCNCC3)cc2)c1C,> 5000,> 1000,> 5000,> 5000,–
COc1cc(-c2cncc(-c3ccc(N4CCN(C)CC4)cc3)c2C)cc(OC)c1C(N)=O,75,< 3,19,249,IC50 (Activin receptor type-1 [17]): 4 nM; IC50 (Activin receptor type-1 [18]): < 2 nM; IC50 (Activin receptor type-1 [19]): < 2 nM
